{
  "source": "patent US10246455B2",
  "about": "“Histone deacetylase inhibitors” (Taipei Medical University, priority 2014, dated 2019)",
  "key": {"HDAC6": {"molecular_target": "HDAC6 (Homo sapiens, UniProt Q9UBN7)", "sequence (Q9UBN7 whole entry, species assumed)": "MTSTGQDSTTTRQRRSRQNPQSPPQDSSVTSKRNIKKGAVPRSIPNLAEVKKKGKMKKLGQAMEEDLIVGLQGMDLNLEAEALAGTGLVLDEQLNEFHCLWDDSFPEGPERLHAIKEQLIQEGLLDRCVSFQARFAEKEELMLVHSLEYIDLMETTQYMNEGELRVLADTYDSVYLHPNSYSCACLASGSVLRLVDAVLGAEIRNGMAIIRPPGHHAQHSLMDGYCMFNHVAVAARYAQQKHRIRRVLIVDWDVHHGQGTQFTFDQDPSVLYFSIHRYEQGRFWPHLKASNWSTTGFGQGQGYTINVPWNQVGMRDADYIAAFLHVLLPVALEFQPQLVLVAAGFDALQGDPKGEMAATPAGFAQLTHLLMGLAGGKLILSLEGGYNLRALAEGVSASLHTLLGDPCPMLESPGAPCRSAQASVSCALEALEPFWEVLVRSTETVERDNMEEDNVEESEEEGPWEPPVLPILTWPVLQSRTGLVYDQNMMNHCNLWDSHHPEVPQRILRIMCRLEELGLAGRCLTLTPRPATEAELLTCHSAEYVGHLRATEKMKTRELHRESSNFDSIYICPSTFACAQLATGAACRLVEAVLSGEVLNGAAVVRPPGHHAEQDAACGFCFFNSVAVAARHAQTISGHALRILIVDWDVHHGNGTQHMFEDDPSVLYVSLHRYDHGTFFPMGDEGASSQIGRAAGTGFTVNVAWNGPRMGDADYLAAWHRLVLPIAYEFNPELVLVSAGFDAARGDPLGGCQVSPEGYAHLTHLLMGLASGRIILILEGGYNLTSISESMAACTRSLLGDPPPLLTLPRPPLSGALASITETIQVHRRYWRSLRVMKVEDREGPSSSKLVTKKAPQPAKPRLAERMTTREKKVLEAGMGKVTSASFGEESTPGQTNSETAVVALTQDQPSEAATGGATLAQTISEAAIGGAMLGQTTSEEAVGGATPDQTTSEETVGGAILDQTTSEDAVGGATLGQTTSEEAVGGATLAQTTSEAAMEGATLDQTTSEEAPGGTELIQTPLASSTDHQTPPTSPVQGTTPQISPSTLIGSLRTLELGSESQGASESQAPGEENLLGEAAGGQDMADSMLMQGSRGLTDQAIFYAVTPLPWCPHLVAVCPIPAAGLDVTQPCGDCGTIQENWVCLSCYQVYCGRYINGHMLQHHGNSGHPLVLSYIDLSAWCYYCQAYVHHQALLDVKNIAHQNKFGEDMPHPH", "assay": "Deacetylase enzyme assay (fluorescence release): HDAC6", "type": "biochemical", "details": "24-hour study", "text": "(§1) Proteins from cells were extracted and subjected to the western blotting analysis. β-Actin was used as an internal control. The deacetylase enzyme assay was based on a homogeneous fluorescence release assay. […] After fluorophore from the deacetylated substrates, fluorescent signal was detected."}, "[1]": {"tested_on": "histone and α-tubulin acetylation in MDA-MD-231 breast carcinoma", "assay": "Western blot: acetylation in MDA-MD-231 cells", "type": "cell-based, human", "experimental": "More specifically, cells in the logarithmic phase were initially seeded at a density of 1×10^6 in 100 mm^2 dishes. […] Briefly, cells were lysed with the cell lysis reagent CelLytic™ M (Sigma-Aldrich) containing 1 mM DTT, 1 mM PMSF and protease inhibitors for whole-cell lysate preparation. Equal amounts of lysate (on a protein basis) were then differentiated using the SDS-PAGE, blotted on PVDF membranes, conjugated with various specific primary antibodies, and then probed with appropriate secondary antibodies. The immunoreactive bands were detected using the ECL method and visualized on Kodak Bio-MAX MR film.\nas §1"}, "[2]": {"tested_on": "K2 (normal: keratinocyte)", "assay": "IC50 against cell lines: K2", "details": "Homo sapiens, read-out: IC50 ± SD against human cancer cell lines"}, "[3]": {"tested_on": "K6 (normal: keratinocyte)", "assay": "IC50 against cell lines: K6", "details": "Homo sapiens, read-out: IC50 ± SD against human cancer cell lines"}, "[4]": {"tested_on": "HUVEC (normal: endothelial)", "assay": "IC50 against cell lines: HUVEC", "details": "Homo sapiens, read-out: IC50 ± SD against human cancer cell lines"}, "[5]": {"tested_on": "RWPE-1 (normal: prostate)", "assay": "IC50 against cell lines: RWPE-1", "details": "Homo sapiens, RWPE-1, read-out: IC50 ± SD against human cancer cell lines"}, "H9 (T cell lymphoma)": {"tested_on": "H9 (T cell lymphoma)", "assay": "IC50 against human cancer cell lines: H9", "details": "read-out: IC50 ± SD against human cancer cell lines"}, "BJAB (B cell lymphoma)": {"tested_on": "BJAB (B cell lymphoma)", "assay": "IC50 against human cancer cell lines: BJAB", "details": "read-out: IC50 ± SD against human cancer cell lines"}, "KB-7D (KB resistant)": {"tested_on": "KB-7D (KB resistant)", "assay": "IC50 against human cancer cell lines: KB-7D", "details": "KB7D, read-out: IC50 ± SD against human cancer cell lines", "quoted_text": "(§2) More specifically, the IC50 values of test compounds were determined by carrying out a fluorimetric histone deacetylase assay following the manufacturer's instructions. For a pan-HDAC assay, HeLa nuclear extracts were used as a source of histone deacetylase (BioVision Inc.). Histone deacetylase isomer inhibition assays were conducted using purified recombinant histone deacetylase proteins of the various isomers (BPS Bioscience Inc.). Reactions were performed in 0.1 mol/L KCl, 20 mmol/L HEPES/NaOH at pH 7.9, 20% glycerol, 0.2 mmol/L DTA, 0.5 mmol/L DTT, and 0.5 mmol/L phenylmethylsulfonylfluoride. […] Reactions were carried out in triplicate for each test compound. Each point represented the mean±SD of replicates."}, "SCC15 (tongue carcinoma)": {"tested_on": "SCC15 (tongue carcinoma)", "assay": "IC50 against human cancer cell lines: SCC15", "details": "SCC-15, read-out: IC50 ± SD against human cancer cell lines"}, "KB-L30 (KB-resistant)": {"tested_on": "KB-L30 (KB-resistant)", "assay": "IC50 against human cancer cell lines: KB-L30", "details": "read-out: IC50 ± SD against human cancer cell lines", "quoted_text": "as §2"}, "[6]": {"tested_on": "DU-145 (prostate carcinoma)", "assay": "IC50 against human cancer cell lines: DU-145", "details": "DU-145, read-out: IC50 ± SD against human cancer cell lines", "quoted_text": "as §2"}, "KB-VIN10 (KB resistant)": {"tested_on": "KB-VIN10 (KB resistant)", "assay": "IC50 against human cancer cell lines: KB-VIN10", "details": "Homo sapiens, KB-VIN10, read-out: IC50 ± SD against human cancer cell lines"}, "[7]": {"tested_on": "LNCaP-R1 (prostate carcinoma)", "assay": "IC50 against human cancer cell lines: LNCaP-R1", "details": "read-out: IC50 ± SD against human cancer cell lines", "quoted_text": "as §2"}, "[8]": {"tested_on": "MDA-MB-231 (breast carcinoma)", "assay": "IC50 against human cancer cell lines: MDA-MB-231", "details": "MDA-MB-231, read-out: IC50 ± SD against human cancer cell lines", "quoted_text": "as §2"}, "C6 glioma cell line [9]": {"tested_on": "C6 glioma cell line", "assay": "Cell proliferation in C6 glioma in vitro (MTT)", "type": "cell-based", "details": "rat C6 glioma", "text": "C6 glioma cell line was obtained from American Type Culture Collection."}, "C6 glioma cell line [10]": {"tested_on": "C6 glioma cell line", "assay": "Cell death in C6 glioma in vitro (LDH assay)", "type": "cell-based", "details": "rat C6 glioma, 30 uM, after 3 days", "experimental": "Cell death was analyzed by a lactate dehydrogenase (LDH) assay. The culture medium was centrifuged after the experiment and the activity of LDH released into culture media was detected with a LDH cytotoxicity detection kit (Roche). The percentage of cytotoxicity was determined by the equation: [(Experimental group−Control group)/(Triton-100-treated group (100% maximal death)−Control group)]×100%."}, "[11]": {"tested_on": "human glioblastoma (U87-MG-LucNeo cells) xenograft", "assay": "Orthotopic tumor size measurement (bioluminescence imaging)", "type": "in vivo, mice", "details": "Compound 7 25 mg/kg versus SAHA 150 mg/kg and TMZ 25 mg/kg", "text": "Another parallel set of xenografted nude mice treated with drug or vehicle treatment as described above were used in this experiment."}, "TSGH (gastric carcinoma)": {"tested_on": "TSGH (gastric carcinoma)", "assay": "IC50 in human cancer cell lines (inhibiting HDAC): TSGH", "details": "read-out: IC50, inhibiting HDAC in human cancer cell lines", "quoted_text": "as §2"}, "HSC-3 (oral carcinoma)": {"tested_on": "HSC-3 (oral carcinoma)", "assay": "IC50 in human cancer cell lines (inhibiting HDAC): HSC-3", "details": "HSC-3, read-out: IC50, inhibiting HDAC in human cancer cell lines"}, "MCF-7 (breast carcinoma)": {"tested_on": "MCF-7 (breast carcinoma)", "assay": "IC50 in human cancer cell lines (inhibiting HDAC): MCF-7", "details": "MCF7, read-out: IC50, inhibiting HDAC in human cancer cell lines"}, "[12]": {"tested_on": "human glioblastoma (U87-MG-LucNeo cells) xenograft", "assay": "In vivo antitumor activity against human glioblastoma xenograft tumor: survival", "details": "intracranial U87 xenograft, Compound 7 50-100 mg/kg p.o.; TMZ 50 mg/kg p.o.", "quoted_text": "Male athymic nude mice at 5-6 weeks old were obtained from BioLasco (Taiwan) and maintained in a specific-pathogen-free facility. All experimental procedures were approved by the Institute of Animal Care and Use Committee of Taipei Medical University. Each nude mouse was anesthetized with an i.p. injection of xylazine (Sigma) and zolazepam (Zoletil 50, Virbac), and then secured in a stereotaxic frame."}},
  "data": [
    {"smiles": "COc1ccc(S(=O)(=O)N2CCc3cc(/C=C/C(=O)NO)cnc32)cc1", "note": "[Compound 5b, (E)-N-hydroxy-3-(1-(4-methoxyphenylsulfonyl)-2,3-dihydro-1H-pyrrolo[2,3-b]pyridin-5-yl)acrylamide]", "values": [
      {"measurement": "concentration inducing inhibition of HDAC6", "setting": "HDAC6", "result": "about 100 nM"},
      {"measurement": "histone and α-tubulin acetylation", "setting": "[1]", "result": "induced histone and α-tubulin acetylation"},
      {"measurement": "IC50", "setting": "[2]", "result": "447 ± 37.3", "unit": "nM"},
      {"measurement": "IC50", "setting": "[3]", "result": "545 ± 39", "unit": "nM"},
      {"measurement": "IC50", "setting": "[4]", "result": "62 ± 2.8", "unit": "nM"},
      {"measurement": "IC50", "setting": "[5]", "result": "240 ± 108", "unit": "nM"},
      {"measurement": "IC50", "setting": "H9 (T cell lymphoma)", "result": "55.4 ± 7.8", "unit": "nM"},
      {"measurement": "IC50", "setting": "BJAB (B cell lymphoma)", "result": "161 ± 20.3", "unit": "nM"},
      {"measurement": "IC50", "setting": "KB-7D (KB resistant)", "result": "139 ± 26.8", "unit": "nM"},
      {"measurement": "IC50", "setting": "SCC15 (tongue carcinoma)", "result": "176 ± 63.9", "unit": "nM"},
      {"measurement": "IC50", "setting": "KB-L30 (KB-resistant)", "result": "175 ± 26.8", "unit": "nM"},
      {"measurement": "IC50", "setting": "[6]", "result": "90 ± 30", "unit": "nM"},
      {"measurement": "IC50", "setting": "KB-VIN10 (KB resistant)", "result": 85, "unit": "nM"},
      {"measurement": "IC50", "setting": "[7]", "result": "150 ± 30", "unit": "nM"},
      {"measurement": "IC50", "setting": "[8]", "result": "247 ± 9.3", "unit": "nM"}
    ]},
    {"smiles": "O=C(/C=C/c1cccc(S(=O)(=O)n2ccc3cccnc32)c1)NO", "note": "[Compound 7, (E)-3-(3-(1H-Pyrrolo[2,3-b]pyridin-1-ylsulfonyl)phenyl)-N-hydroxyacrylamide]", "values": [
      {"measurement": "inhibition at 30 µM", "setting": "C6 glioma cell line [9]", "result": "~50", "unit": "%"},
      {"measurement": "induction of cell death (LDH)", "setting": "C6 glioma cell line [10]", "result": "about 100%"},
      {"measurement": "tumor size (bioluminescence imaging)", "setting": "[11]", "result": "decreased the tumor size more than a higher dose of SAHA (150 mg/kg) or the same dose of TMZ (25 mg/kg)"},
      {"measurement": "IC50", "setting": "TSGH (gastric carcinoma)", "result": "2100 ± 110", "unit": "nM"},
      {"measurement": "IC50", "setting": "HSC-3 (oral carcinoma)", "result": "660 ± 120", "unit": "nM"},
      {"measurement": "IC50", "setting": "MCF-7 (breast carcinoma)", "result": "1330 ± 360", "unit": "nM"},
      {"measurement": "survival", "setting": "[12]", "result": "extended survival longer than TMZ"}
    ]}
  ]
}
